Results on twelve compounds are retold here after ChEMBL document CHEMBL3397039, “Anti-inflammatory activity of phenolic compounds from the whole plant of Scutellaria indica” (Bioorg Med Chem Lett, 2015).

The test system of data set [1] is RAW264.7. Kind of data set: Toxicity against mouse RAW264.7 cells at 30 uM after 24 hrs in absence of LPS by MTT assay. It is filed as cell-based. The following applies: raw264.7, 24 h.
Data set [2] deals with RAW264.7. Nature of the data set: Toxicity against mouse RAW264.7 cells at 30 uM after 24 hrs in presence of LPS by MTT assay. The format is cell-based. Conditions: raw264.7, 24 h.
Data set [3] has as its system RAW264.7. Kind of data set: Anti-inflammatory activity in mouse RAW264.7 cells assessed as inhibition of LPS-induced nitric oxide production by Griess reaction based method. It is filed as functional, cell-based.
For data set [4], the system named is RAW264.7. Kind of data set: Effect on alpha-tubulin protein expression in mouse RAW264.7 cells up to 30 uM by Western blotting method. It is filed as ADME, cell-based.
Data set [5] concerns RAW264.7. Kind of data set: Inhibition of LPS-induced iNOS protein expression in mouse RAW264.7 cells by Western blotting method. It is filed as functional, cell-based.

For `O=C(O)[C@H]1O[C@@H](Oc2c(O)cc(O)c3c(=O)cc(-c4ccccc4)oc23)[C@H](O)[C@@H](O)[C@@H]1O`, the Activity result in data set [1] and in data set [2] was “Non-toxic” each time. Moreover, the IC50 in data set [3] is above 30 µM.
`COc1c(O[C@@H]2O[C@H](C(=O)O)[C@@H](O)[C@H](O)[C@H]2O)cc(O)c2c1O[C@H](c1ccccc1O)CC2=O`: the Activity entry in data set [1] and in data set [2] was “Non-toxic” each time. The IC50 in data set [3] is above 30 µM.
Consider `COc1cc(O)c2c(c1OC)O[C@H](c1c(O)cccc1O[C@@H]1O[C@H](CO)[C@@H](O)[C@H](O)[C@H]1O)CC2=O`, for which the Activity result in data set [1] and in data set [2] was “Non-toxic” in each case. Further, in data set [3], the IC50 was above 30 µM.
Regarding `COc1ccc([C@@H]2CC(=O)c3c(O)c(OC)c(OC)c(OC)c3O2)cc1`, the Activity result in data set [1] and in data set [2] was “Non-toxic” each time. Besides, the IC50 in data set [3] turned out to be 27.8 µM.
Take `COc1cc(O)c2c(c1OC)O[C@H](c1cc(O)ccc1O[C@@H]1O[C@H](COC(C)=O)[C@@H](O)[C@H](O)[C@H]1O)CC2=O`: the Activity entry in data set [1] and in data set [2] was “Non-toxic” throughout. Further, the IC50 in data set [3] is above 30 µM.
Turning to `COc1c(O)cc(O)c2c(=O)cc(-c3ccc(O)cc3)oc12` [4'-HYDROXYWOGONIN], the Activity entry in data set [1] and in data set [2] was “Non-toxic” throughout. The IC50 in data set [3] came to 12.5 µM.
As for `O=c1cc(-c2ccc(O)c(O)c2)oc2cc(O)cc(O)c12` [LUTEOLIN], the Activity entry in data set [4], in data set [1] and in data set [2] was “Non-toxic” in each case. Also, the 50% inhibitory concentration (IC50) in data set [3] stood at 7.2 µM. Besides, the inhibition result in data set [5] was “Dose-dependent effect”.
Turning to `COc1cc(O)c2c(c1OC)O[C@H](c1cc(O)ccc1O[C@@H]1O[C@H](CO)[C@@H](O)[C@H](OC(=O)c3ccc(O)cc3)[C@H]1O)CC2=O`, the Activity entry in data set [1] and in data set [2] was “Non-toxic” each time. In addition, in data set [3], the IC50 was above 30 µM.
In the case of `COC(=O)[C@H]1O[C@@H](Oc2c(O)cc(O)c3c(=O)cc(-c4ccccc4)oc23)[C@H](O)[C@@H](O)[C@@H]1O`, the Activity result in data set [1] and in data set [2] was “Non-toxic” in each case. In addition, in data set [3], the IC50 is above 30 µM.
As to `COC(=O)[C@H]1O[C@@H](Oc2cc(O)c3c(c2OC)O[C@H](c2cccc(OC)c2)CC3=O)[C@H](O)[C@@H](O)[C@@H]1O`, the Activity result in data set [1] and in data set [2] was “Non-toxic” each time. In data set [3], the half-maximal inhibitory concentration (IC50) was above 30 µM.
For the compound `COc1ccccc1[C@@H]1CC(=O)c2c(O)cc(O[C@@H]3O[C@H](CO)[C@@H](O)[C@H](O)[C@H]3O)c(OC)c2O1`, the Activity entry in data set [1] and in data set [2] was “Non-toxic” each time. Besides, in data set [3], the IC50 was above 30 µM.
Turning to `COC(=O)[C@H]1O[C@@H](Oc2ccccc2[C@@H]2CC(=O)c3c(O)cc(OC)c(OC)c3O2)[C@H](O)[C@@H](O)[C@@H]1O`, the Activity result in data set [1] and in data set [2] was “Non-toxic” each time. The IC50 in data set [3] is above 30 µM.
